This is an account of results in patent US12161669B2, “Compositions and methods for cell targeting therapies” (UMC UTRECHT HOLDING B.V., priority 2017, dated 2024).

For one test, the system named is HEK293FT tumor cells. The experiment in a line: Tumor cell-T cell conjugate formation with HEK293FT cells (confocal). Particulars: Jurma cells expressing γδTCRs, 100 μM PAM. Type of test: cell-based. As to the method: HEK293FT cells were seeded in μ-slide poly-L-lysine pre coated chamber (Ibidi) to adhere overnight. Next day cells were treated with 100 μM PAM for one hour at 37° C. TEGs were added onto HEK293FT cells and incubated at 37° C. for 30-120 minutes. After co-incubation chambers were immediately placed onto ice and fixed with 4% PFA for 30 minutes. Samples were blocked with 1% BSA/FCS and labeled with CD3ε-Alexa Fluor 647 (BD Biosciences) at 2 μg/mL for two hours at room temperature, and finally fixed with 1% PFA+DAPI. Samples were imaged with Zeiss LSM-710 and analyzed with Volocity software (PerkinElmer). In order to quantify the number of conjugates between HEK293FT and TEG cells we calculated the ratio between CD3c positive objects and DAPI positive objects on each image taken. To analyse gamma delta TCR enrichment into the immunological synapse, we calculated the ratio of CD3c signal enrichment inside the contact area versus outside of contact area of the target and effector cell on 63× magnified images. To further assess whether distinct functional avidity of γ9δ2TCRs when expressed in the TEG format is regulated by their ability to mediate binding of TEGs to tumor cell targets a more dynamic model was utilized. […] The number of tumor cell-T cell conjugates was assessed. […]

A further test relates to RhoB and CD277. The experiment in a line: Flow cytometry FRET of RhoB-CD277 association in HEK 293 cells. Type of test: cell-based. Particulars: ABP treated vs untreated. The method, then: To study association of RhoB and BTN3 molecules, cells were permeabilized by using Permeabilization solution 2 (BD), then blocked with PBS containing 50% Human serum and labeled with rabbit polyclonal anti-RhoB antibody (AbCam). After washing with PBS, samples were labeled with Alexa594-conjugated Goat anti-Rabbit IgG (acceptor) (Jackson ImmunoResearch) and CD277-PE (donor) (BT3.1, Biollegend), respectively. The donor fluorescence was measured using a FACS Canto-II flow cytometer (BD) where donor fluorescence of the double-labeled samples was compared with that of samples labeled only with donor antibody. FRET efficiency was calculated from the fractional decrease of the donor fluorescence in the presence of the acceptor.
Background: Flow cytometry measures light scatter and fluorescence of single cells or particles in a stream.

For `NCCC(O)(P(=O)(O)O)P(=O)(O)O` [pamidronate], the “number of tumor cell-T cell conjugates, effect of PAM” value with HEK293FT tumor cells is given as “increased the number of conjugates”. The “close association between RhoB and CD277 (FRET efficiency)” value in the test with RhoB and CD277 is reported as “increased markedly”.
